Test results as given in Sander's compilation of Henry's law constants (doi:10.1021/es00081a021).

Experiment: Henry solubility constant Hcp at 298.15 K (mol/(m3 Pa))
Settings: reference: Brunner et al. (1990)

SMILES	Henry solubility constant Hcp
Clc1cc(-c2cc(Cl)c(Cl)c(Cl)c2Cl)c(Cl)c(Cl)c1Cl [2,2',3,3',4,4',5,5'-octachlorobiphenyl]	0.99
Clc1cc(-c2c(Cl)cc(Cl)c(Cl)c2Cl)c(Cl)c(Cl)c1Cl [2,2',3,3',4,4',5,6'-octachlorobiphenyl]	0.99
Clc1cc(Cl)c(-c2c(Cl)c(Cl)cc(Cl)c2Cl)c(Cl)c1Cl [2,2',3,3',4,5',6,6'-octachlorobiphenyl]	0.58
Clc1cc(Cl)c(Cl)c(-c2ccc(Cl)c(Cl)c2Cl)c1 [2,2',3,3',4,5'-hexachlorobiphenyl]	0.27
Clc1cc(-c2c(Cl)c(Cl)cc(Cl)c2Cl)c(Cl)c(Cl)c1Cl [2,2',3,3',4,5,5',6'-octachlorobiphenyl]	0.99
Clc1cc(-c2c(Cl)ccc(Cl)c2Cl)c(Cl)c(Cl)c1Cl [2,2',3,3',4,5,6'-heptachlorobiphenyl]	0.7
Clc1cccc(-c2c(Cl)c(Cl)c(Cl)c(Cl)c2Cl)c1Cl [2,2',3,3',4,5,6-heptachlorobiphenyl]	0.7
Clc1cccc(-c2cc(Cl)c(Cl)c(Cl)c2Cl)c1Cl [2,2',3,3',4,5-hexachlorobiphenyl]	0.34
Clc1cc(Cl)c(Cl)c(-c2c(Cl)c(Cl)cc(Cl)c2Cl)c1Cl [2,2',3,3',5,5',6,6'-octachlorobiphenyl]	0.55
Clc1cc(Cl)c(Cl)c(-c2c(Cl)ccc(Cl)c2Cl)c1 [2,2',3,3',5,6'-hexachlorobiphenyl]	0.18
Clc1ccc(Cl)c(-c2c(Cl)c(Cl)cc(Cl)c2Cl)c1Cl [2,2',3,3',5,6,6'-heptachlorobiphenyl]	0.41
Clc1ccc(Cl)c(-c2c(Cl)ccc(Cl)c2Cl)c1Cl [2,2',3,3',6,6'-hexachlorobiphenyl]	0.11
Clc1cccc(-c2cccc(Cl)c2Cl)c1Cl [2,2',3,3'-tetrachlorobiphenyl]	0.099
Clc1cc(Cl)c(-c2cccc(Cl)c2Cl)cc1Cl [2,2',3,4',5'-pentachlorobiphenyl]	0.13
Clc1cc(Cl)c(Cl)c(-c2cc(Cl)c(Cl)cc2Cl)c1 [2,2',3,4',5,5'-hexachlorobiphenyl]	0.39
Clc1ccc(-c2c(Cl)c(Cl)cc(Cl)c2Cl)c(Cl)c1 [2,2',3,4',5,6-hexachlorobiphenyl]	0.19
Clc1cc(Cl)c(-c2ccc(Cl)c(Cl)c2Cl)cc1Cl [2,2',3,4,4',5'-hexachlorobiphenyl]	0.47
Clc1ccc(-c2ccc(Cl)c(Cl)c2Cl)c(Cl)c1 [2,2',3,4,4'-pentachlorobiphenyl]	0.15
Clc1ccc(Cl)c(-c2cc(Cl)c(Cl)c(Cl)c2Cl)c1 [2,2',3,4,5,5'-hexachlorobiphenyl]	0.43

SMILES	Henry solubility constant Hcp
Clc1cc(Cl)c(-c2cc(Cl)c(Cl)cc2Cl)cc1Cl [2,2',4,4',5,5'-hexachlorobiphenyl]	0.43
Clc1ccc(-c2cc(Cl)c(Cl)cc2Cl)c(Cl)c1 [2,2',4,4',5-pentachlorobiphenyl]	0.13
Clc1cc(Cl)c(-c2c(Cl)cccc2Cl)cc1Cl [2,2',4,5,6'-pentachlorobiphenyl]	0.11
Clc1ccc(Cl)c(-c2cc(Cl)ccc2Cl)c1 [2,2',5,5'-tetrachlorobiphenyl]	0.049
Clc1ccc(Cl)c(-c2ccccc2Cl)c1 [2,2',5-trichlorobiphenyl]	0.039
Clc1cccc(Cl)c1-c1c(Cl)cccc1Cl [2,2',6,6'-tetrachlorobiphenyl]	0.049
Clc1ccccc1-c1c(Cl)cccc1Cl [2,2',6-trichlorobiphenyl]	0.043
Clc1ccc(Cl)c(-c2ccc(Cl)c(Cl)c2)c1 [2,3',4',5-tetrachlorobiphenyl]	0.099
Clc1cccc(-c2cc(Cl)c(Cl)cc2Cl)c1 [2,3',4,5-tetrachlorobiphenyl]	0.099
Clc1cccc(-c2ccccc2Cl)c1 [2,3'-dichlorobiphenyl]	0.039
Clc1cc(Cl)cc(-c2cc(Cl)c(Cl)c(Cl)c2Cl)c1 [2,3,3',4,5,5'-hexachlorobiphenyl]	0.49
Clc1cccc(-c2c(Cl)c(Cl)c(Cl)c(Cl)c2Cl)c1 [2,3,3',4,5,6-hexachlorobiphenyl]	0.49
Clc1cc(Cl)cc(-c2c(Cl)c(Cl)cc(Cl)c2Cl)c1 [2,3,3',5,5',6-hexachlorobiphenyl]	0.34
Clc1cc(Cl)c(-c2ccccc2)c(Cl)c1Cl [2,3,4,6-tetrachlorobiphenyl]	0.047
Clc1ccc(Cl)c(-c2ccccc2)c1Cl [2,3,6-trichlorobiphenyl]	0.045
Clc1ccc(-c2cc(Cl)ccc2Cl)cc1 [2,4',5-trichlorobiphenyl]	0.052
Clc1cccc(-c2cc(Cl)cc(Cl)c2)c1 [3,3',5-trichlorobiphenyl]	0.058
Clc1ccc(-c2ccc(Cl)c(Cl)c2)cc1 [3,4,4'-trichlorobiphenyl]	0.099
Clc1ccc(-c2ccccc2)cc1Cl [3,4-dichlorobiphenyl]	0.07
